Among the data in patent US5736523A, “Antineoplastic heteronapthoquinones” (Biochem Pharma Inc., priority 1995, dated 1998) are IC50 and VLB/OV3 values, retold here.

Common to all, as to format: cell-based, human
In experiment [1] the test system is T47D (Ductal carcinoma of breast). As to the kind of experiment: In vitro cytotoxicity, microculture tetrazolium (MTT) assay, T47D. As to the method:
(§1) In Vitro Cytotoxicity--Microculture Tetrazolium Assay
(§2) The microculture tetrazolium assay was used to test in vitro cytotoxicity. This assay is described in Plumb, J. A. et al., 1989 Cancer Research 49, 4435-4440, which is herein incorporated by reference. The cytotoxicity of compounds towards tumor cells is measured in vitro using the assay. This assay method is based upon the ability of live, but not dead cells to reduce the yellow water soluble dye 3-(4;5-dimethylthiazol-2-yl)-2,5-diphenyltetrazolium bromide (MTT) to its water insoluble purple formazan product.
(§3) Human Tumor Cell lines, used were:
T47D (Ductal carcinoma of breast)--ATCC catalog #HTB-133.
(§4) The cells were maintained in exponential growth in culture in minimal essential media (MEM) supplemented with non-essential amino acids, and containing 15% (v/v) fetal bovine serum, 5 mM L-glutamine, 1 mM sodium pyruvate, and 0.1 U/ml insulin. All cell lines were grown at 37° C. in an atmosphere of 5% CO2 in air.
(§5) Test compounds: 20 mM in DMSO and diluted to a final concentration of 200 μM in culture medium before use.
(§6) The following is the generic description of the assay method. It should be noted that although the conditions described work well with the cells listed above, the initial plating density and the MTT concentration used should be verified for each new cell line used to test compounds.
(§7) For each assay, doxorubicin is included as an inter-assay standard. This allows us to monitor the behaviour of the assay in general, and in particular, to check that the SKVLB line has maintained its resistant phenotype.
(§8) The plate layout is done in the following manner: The assays are carried out in 96-well (8 well×12 well) microtiter plates. Serial dilutions of the compound are tested along the length of the plate. A 1:3 serial dilution of compound in culture medium covers a concentration range from 100 μM to 1.7 nM. Each concentration of compound is tested in quadruplet, allowing two compounds to be tested per plate. Wells containing no cells (blank) and cells with no test compound (control) are included on each plate.
(§9) Cells are plated out in 100 μl of culture medium in the microtiter plates at a density of around 1,500-4,000 cells per well. The plates are incubated overnight to allow the cells to become adherent after which the test compound is added (100 μl of appropriate dilution per well). The cells are incubated with test compound at 37° C. for 48 h after which the compound is replaced with fresh medium. After a further 48 h incubation at 37° C., 50 μl of MTT solution (2 mg/ml) is added to each well. The plates are incubated in the dark for 4 h at 37° C. after which the medium is removed. The MTT formazan product is extracted from the cells by the addition of 200 μl DMSO followed by 50 μl of Sorensen's buffer. The plates are shaken briefly and the absorbance at 570 nm is read using a Molecular Devices UV max plate reader. Curves are fit to the MTT assay data using a four parameter logistic equation, and the data are normalized to fit a 0% to 100% survival scale.

Experiment [2] relates to SKOV3 (Ovarian adenocarcinoma). As to the kind of experiment: In vitro cytotoxicity, microculture tetrazolium (MTT) assay, SKOV3. As to the method: as §1, §2, §3
SKOV3 (Ovarian adenocarcinoma)--provided by Dr. V. Ling,
as §4, §5, §6, §7, §8, §9

Experiment [3] concerns HT 29 (Colon adenocarcinoma). As to the kind of experiment: In vitro cytotoxicity, microculture tetrazolium (MTT) assay, HT 29. The method, then:
as §1, §2, §3
HT 29 (Colon adenocarcinoma) ATCC catalog #HTB-38.
as §4, §5, §6, §7, §8, §9

For experiment [4], the system named is SKVLB (Ovarian; multidrug resistant). The experiment can be described thus: In vitro cytotoxicity, microculture tetrazolium (MTT) assay, SKVLB. Particulars: for VLB/OV3: ratio SKVLB / SKOV3. The method, then: as §1, §2, §3
SKVLB (Ovarian; multidrug resistant)--Dr. V. Ling, Ontario
as §4, §5, §6, §7, §8, §9

The test system of another experiment is Lox (Melanoma). As to the kind of experiment: In vitro cytotoxicity, microculture tetrazolium (MTT) assay, Lox. The method, then: as §1, §2, §3
Lox (Melanoma)--Southern Research Institute.
as §4, §5, §6, §7, §8, §9

[5] abbreviates: SKVLB, multidrug resistant, read-out: IC50.
The mark [6] stands for this setting: Homo sapiens, HT-29, HT29, read-out: IC50.

Like-named read-outs stand apart in the source and are kept apart here. Where only a bound is given, the exact number is not on record here.

Take `CC(=O)O[C@@H]1[C@H](C)O[C@@H](OC2OC(C(C)=O)CC3=C2C(=O)c2ccccc2C3=O)C[C@@H]1OC(C)=O` (mixture of isomers) [BCH2118, (1'S,1S,3R) and (1'S,1R,3S)-methyl-(1-[dideoxy-2',6'-diacetoxy-3',4'-L-lyxohexopyranose]-5,10-dioxo-3,4,5,10-tetrahydronaphtho-[2,3-c]-pyran-3-yl) ketone]: the IC50 came to 244 nM in experiment [1] (read-out: IC50); 120 nM in experiment [2] (SKOV3, read-out: IC50); 203 nM in experiment [3] (HT29, read-out: IC50); 0.79 µM in experiment [4] (setting [5]). In experiment [4], the VLB/OV3 was 6.68.
`CC(=O)C1CC2=C(C(=O)c3ccccc3C2=O)C(OCC2CCN(C(=O)OC(C)(C)C)CC2)O1.Cl` (racemic) [BCH2068, Methyl-(1-O-[N-BOC-4-piperidinemethanol]-5,10-dioxo-3,4,5,10-tetrahydronaphthaleno-[2,3-c]pyran-3-yl) ketone, racemic, hydrochloride]: the 50% inhibitory concentration (IC50) in experiment [1] (read-out: IC50) amounted to 422 nM; in experiment [3] (HT29, read-out: IC50), 130 nM; in experiment [4] (setting [5]) it was 1.2 µM; with Lox (Melanoma) (read-out: IC50), 1300 nM. Also, in experiment [4], the VLB/OV3 was 1.
Consider `CC[C@H]1CC2=C(C(=O)c3ccccc3C2=O)[C@H](NC(C)=O)O1` (relative stereo) [BCH2027, Trans-5,10-dioxo-1-acetamido-3-ethyl-3,4,5,10-tetrahydro-1H-naphtho-[2,3-c]-pyran], for which the values for the IC50 (in experiment [1] (Homo sapiens); in the experiment on Lox (Melanoma) (Homo sapiens)) were 23300 nM and 3040 nM, respectively. Also, in experiment [4], the VLB/OV3 amounted to 4.02.
On to `C=C(C)[C@H]1CC2=C(C(=O)c3ccccc3C2=O)[C@H](OC)O1` (relative stereo) [BCH2148, (trans)-5,10-dioxo-3-isopropenyl-1-methoxy-3,4,5,10-tetrahydro-1H-naphtho-[2,3-c]-pyran], for which, in experiment [4], the VLB/OV3 is 0.79. For the same compound, in the experiment with Lox (Melanoma) (Homo sapiens), the IC50 amounted to 1550 nM.
On to `CC(=O)C1CC2=C(C(=O)c3ccccc3C2=O)C(O)O1` (centres unmarked) [BCH1148, Methyl (1-hydroxy-5,10-dioxo-3,4,5,10-tetrahydronaphtho [2,3-C]pyran-3-yl) ketone], for which the IC50 in experiment [3] (setting [6]) was above 10000 nM.
Consider `COP(=O)(CC(=O)[C@@H]1CC2=C(C(=O)c3ccccc3C2=O)[C@@H](O[C@H]2C[C@H](NC(=O)C(F)(F)F)[C@H](O)[C@H](C)O2)O1)OC` [BCH1689, (1'S,1R,3S)-1-(2',3',6'-trideoxy-3'-trifluoroacetamido-L-lyxohexopyranose)-3-dimethylphosphonoacetyl-5,10-dioxo-3,4,5-10-tetrahydro-1H-naphtho-[2,3-c]-pyran], for which the IC50 in experiment [2] (Homo sapiens, SK-OV-3) came to 2780 nM; in experiment [3] (Homo sapiens, HT-29), 3660 nM; in experiment [4] (Homo sapiens) it was 16.5 µM; in the experiment on Lox (Melanoma) (Homo sapiens) it was 1720 nM. In addition, in experiment [4], the VLB/OV3 was found to be 5.94.
Take `COP(=O)(CC(=O)[C@H]1CC2=C(C(=O)c3ccccc3C2=O)[C@H](O[C@H]2C[C@H](NC(=O)C(F)(F)F)[C@H](O)[C@H](C)O2)O1)OC` [BCH1690, (1'S,1S,3R)-1-(2',3',6'-trideoxy-3'-trifluoroacetamido-L-lyxohexopyranose)-3-dimethylphosphonoacetyl-5,10-dioxo-3,4,5-10-tetrahydro-1H-naphtho-[2,3-c]-pyran]: the IC50 in experiment [2] (Homo sapiens, SK-OV-3) came to 1780 nM; in experiment [3] (Homo sapiens, HT-29), 3010 nM; in experiment [4] (Homo sapiens), 13.7 µM; in the experiment on Lox (Melanoma) (Homo sapiens), 1620 nM. Moreover, the VLB/OV3 in experiment [4] came to 7.70.
For `CC(=O)O[C@@H]1[C@H](C)O[C@@H](O[C@H]2O[C@H](C(C)=O)CC3=C2C(=O)c2ccccc2C3=O)C(Br)[C@@H]1OC(C)=O` (stereo partly drawn) [BCH2100, (1'S,1R,3S)-methyl-(1-[2',6'-dideoxy-3',4'-diacetoxy-2'-bromo-L-lyxohexopyranose]-5,10-dioxo-3,4,5,10-tetrahydronaphtho-[2,3-c]-pyran-3-yl) ketone], in experiment [4], the VLB/OV3 came out at 3.04.
Still for that read-out and setting: with `CC(C)C(=O)[C@@H]1CC2=C(C(=O)c3ccccc3C2=O)[C@@H](O[C@H]2C[C@H](NC(=O)C(F)(F)F)[C@H](O)[C@H](C)O2)O1` [BCH2112, (1'S,1R,3S)-isopropyl-[1-(2',3',6'-trideoxy-3'-trifluoroacetamido-L-lyxohexopyranose)-5,10-dioxo-3,4,5,10-tetrahydro-1H-naphtho-[2,3-c]-pyranyl]-ketone] the figure was 15.96-17; with `COC1OC(C(C)=O)=CC2=C1C(=O)c1ccccc1C2=O` (centres unmarked) [BCH2129, 3-Aceto-5,10-dioxo-1-methoxy-5,10-dihydro-1H-naphtho-(2,3-c)-pyran], 2.95; with `CO[C@H]1C[C@H](O[C@H]2O[C@H](C(C)=O)C[C@]34O[C@]23C(=O)c2ccccc2C4=O)O[C@@H](C)[C@H]1OS(C)(=O)=O` [BCH2141, (1'-S,1-R,3-S,4a-S,10a-S)-methyl-(1-[2',3',4',6'-tetradeoxy-3'-methoxy-4'-O-methanesulfonyl-L-lyxohexopyranose)-4a,10a-epoxy-5,10-dioxo-3,4,5,10-tetrahydronaphtho-[2,3-c]pyran-3-yl) ketone], 1.23.
As to `CC(=O)C1CC2=C(C(=O)c3ccccc3C2=O)C(OC2CC(NC(=O)C(F)(F)F)C(O)C(C)O2)O1` (centres unmarked) [BCH2145], the 50% inhibitory concentration (IC50) in experiment [2] (SKOV3, read-out: IC50) was 8190 nM; in experiment [3] (HT29, read-out: IC50), 2480 nM; in experiment [4] (setting [5]), 13.4 µM; in the experiment with Lox (Melanoma) (read-out: IC50) it was 830 nM. Further, the VLB/OV3 in experiment [4] was 1.64.
Regarding `COC(=O)C1=CC2=C(C(=O)c3ccccc3C2=O)C(OC)O1` (centres unmarked) [BCH2160, 1-methoxy-3-methoxy carbonyl-5,10-dioxo-5,10-dihydro-1H-naphtho-[2,3-c]-pyran], in experiment [4], the VLB/OV3 is listed as 1.85.
Turning to `COC1OC(C(=O)NCCCN2CCCC2=O)=CC2=C1C(=O)c1ccccc1C2=O` (centres unmarked) [BCH2166, 1-methoxy-3-(3-N-pyrrolidinomylpropylaminocarbonyl)-5,10-dioxo-5,10-dihydro-1H-naphtho-[2,3-c]-pyran], the IC50 in experiment [1] (Homo sapiens, read-out: IC50) was 237 nM; in experiment [2] (Homo sapiens, SK-OV-3, SKOV3, read-out: IC50), 140 to 181 nM; in experiment [3] (setting [6]) it was 443 to 1200 nM; in experiment [4] (Homo sapiens, SKVLB, multidrug resistant, read-out: IC50), 0.495 to 1.2 µM. Also, the VLB/OV3 in experiment [4] is recorded as 2.73.
Take `COC1OC(C(=O)NCCN2CCOCC2)=CC2=C1C(=O)c1ccccc1C2=O` (centres unmarked) [BCH2170, 1-methoxy-3-[2-(N-morpholino)ethylaminocarbonyl]-5,10-dioxo-5,10-dihydro-1H-naphtho-[2,3-c]-pyran]: in experiment [4], the VLB/OV3 is reported as 1.52.
`COC1OC(C(=O)NCCN2CCOCC2)=CC2=C1C(=O)c1ccccc1C2=O` (centres unmarked) [BCH2171, 1-methoxy-3-[2-(N-morpholine)ethylaminocarbonyl]-5,10-dioxo-5,10-dihydro-1H-naphtho-[2,3-c]-pyran]: the IC50 is 398 nM in experiment [1] (Homo sapiens, read-out: IC50) and 219 nM in experiment [3] (HT29, read-out: IC50). The VLB/OV3 in experiment [4] came out at 2.16.
`COC(=O)C1=CC2=C(CO1)C(=O)c1ccccc1C2=O` [BCH2830, 3-methoxy carbonyl-5,10-dioxo-5,10-dihydro-1H-naphtho-[2,3-c]-pyran] gave an IC50 in experiment [4] (Homo sapiens) of 10.8 µM. For the same compound, the VLB/OV3 in experiment [4] was 1.52.
In the case of `COC1OC(C(=O)NCCN2CCCC2)=CC2=C1C(=O)c1ccccc1C2=O.Cl` (centres unmarked) [BCH2839, 1-methoxy-3-[2-(N-pyrrolidinyl)ethylaminocarbonyl]-5,10-dioxo-5,10-dihydro-1H-naphtho-[2,3-c]-pyran hydrochloride salt], the VLB/OV3 in experiment [4] is on record as 6.14-9.98.
As for “(1'S,1S,3R)-methyl-(6 and 9-hydroxy-1-[2',3',6'-trideoxy-3'-trifluoroacetamido-4'-hydroxy-L-lyxohexopyranose]-5,10-dioxo-3,4,5,10-tetrahydronaphtho-[2,3-c]-pyran-3-yl-ketone [BCH2078]”, the IC50 in experiment [1] (read-out: IC50) turned out to be 507 nM; in experiment [2] (SKOV3, read-out: IC50), 414 nM; in experiment [3] (HT29, read-out: IC50), 269 nM; in experiment [4] (setting [5]) it was 2.24 µM. The VLB/OV3 in experiment [4] is reported as 5.41.
